From patent US12679878B2, “CRF2 receptor agonists and their use in therapy” (SANOFI, priority 2020, dated 2026)
≈ marks a conversion by molar mass, not a printed value. Starred links: 1 amine or outer side, 2 acyl side, 3 side chain; linkers in the order of their positions; H or OH if unused. Non-standard residues stand in square brackets, D forms with d. Residues, ends and D or L forms follow the SMILES beside them. Groups on a side chain read outwards from the residue. *: point of attachment. γGlu = O=C(O)[C@H](CCC(=O)[*:2])N[*:1]; Palmitoyl = CCCCCCCCCCCCCCCC(=O)*; Aib = CC(C)(N)C(=O)O

What was measured:
[1] = target: T1, CRF1R receptor (Homo sapiens, UniProt P34998); test: cAMP activity at anti-target CRF1R, CRF1R-overexpression CHO cell line (Example 9); format: cell-based; conditions: CRF1R-overexpression CHO cell line; for EC50: 0% HSA; for Emax: read-out: Emax (%)
T1 construct: host or cells: CHO-K1 clone 2
T1 sequence (P34998 24-415): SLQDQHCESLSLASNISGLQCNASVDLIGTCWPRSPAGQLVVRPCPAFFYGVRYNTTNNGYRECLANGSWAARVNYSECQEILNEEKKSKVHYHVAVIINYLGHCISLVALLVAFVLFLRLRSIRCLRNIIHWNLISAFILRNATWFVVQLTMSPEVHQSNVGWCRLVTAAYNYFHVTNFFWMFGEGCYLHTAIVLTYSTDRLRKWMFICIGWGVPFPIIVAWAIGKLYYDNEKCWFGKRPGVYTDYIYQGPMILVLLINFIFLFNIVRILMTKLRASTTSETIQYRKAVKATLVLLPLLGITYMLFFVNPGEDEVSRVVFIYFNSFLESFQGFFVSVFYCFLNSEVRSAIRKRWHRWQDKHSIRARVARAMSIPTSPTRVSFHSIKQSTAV
Summary of the method: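 Using thawed CRF1R-overexpressing CHO cells at 2000 per well, compound is applied for 30 min at RT in HBSS/HEPES buffer with IBMX. Cellular cAMP content is determined via HTRF, and percent activity is calculated against 1000 nM UCN2 defined as 100%.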

[2] = Solubility in buffer systems by UPLC-UV (Example 13); format: physicochemical
Method: Prior to performing the solubility measurements, the purity of the compounds was determined through UPLC/MS. […] Therefore, solutions from solid samples were prepared in a buffer system with a concentration of 10 mg/mL compound based on the previously determined % purity.
UPLC-UV was performed after 1 hour of gentle agitation from the supernatant, which was obtained after 15 minutes of centrifugation at 2500 RCF (relative centrifugal acceleration). The solubility was determined by the comparison of the UV peak area of a 2 μL-injection of a buffered sample diluted 1:10 with a standard curve of a reference compound with known concentration. The different UV extinction coefficients of sample and reference compound were calculated based on the different amino acid sequences and considered in the concentration calculation.

[3] = target: T2, human CRF2α receptor (Homo sapiens, UniProt Q13324); test: cAMP agonism at human CRF2 α receptor in TeloHEAC cells (Example 7); format: cell-based; conditions: cAMP HTRF, TeloHEAC cells stably expressing human CRF2 α, 0% HSA; read-out: EC50 [nM], 0% HSA
T2 construct: expressed in transfected cells; host or cells: TeloHEAC
T2 sequence (Q13324 1-411): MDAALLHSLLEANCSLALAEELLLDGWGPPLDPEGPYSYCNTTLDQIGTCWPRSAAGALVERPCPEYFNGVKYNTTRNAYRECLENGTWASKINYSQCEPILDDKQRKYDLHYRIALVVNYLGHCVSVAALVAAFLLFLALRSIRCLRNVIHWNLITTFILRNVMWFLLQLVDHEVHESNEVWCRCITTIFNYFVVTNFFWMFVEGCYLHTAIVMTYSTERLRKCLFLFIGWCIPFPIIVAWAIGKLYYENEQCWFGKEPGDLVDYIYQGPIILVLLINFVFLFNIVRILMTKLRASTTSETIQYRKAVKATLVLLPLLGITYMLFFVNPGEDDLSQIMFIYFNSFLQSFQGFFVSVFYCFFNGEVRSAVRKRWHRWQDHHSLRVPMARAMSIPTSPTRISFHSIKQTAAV
Summary of the method: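 Thawed frozen stably transfected cells in HBSS/20 mM HEPES (0% or 0.1% HSA) plus 2 mM IBMX were exposed to compound at 2000 cells/well for 30 min at room temperature. Intracellular cAMP was read by HTRF (665/620 nm ratio) after 1 h lysis; EC50 was derived with 1000 nM urocortin 2 set as 100%.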

[4] = system: rat CRF2R α receptor; test: cAMP agonism at rat CRF2R α receptor in A7R5 rat aortic smooth muscle cells (Example 8); format: cell-based; conditions: cAMP HTRF, A7R5 rat aortic smooth muscle cell line, 0% HSA
Summary of the method: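 Potency (EC50) is the concentration reaching half-maximal activation, with responses scaled so that 1000 nM urocortin 2 equals 100%. Intracellular cAMP was quantified by homogeneous time-resolved fluorescence at 665/620 nm, 1 h after lysis-buffer reagents. Compound stimulation lasted 30 min at room temperature on 2000 IBMX-treated (2 mM) cells per well in HEPES-buffered HBSS.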

[5] = pH 4.5, Solubility in Buffer A [mg/ml]
[6] = pH 7.4, Solubility in Buffer C [mg/ml]
[7] = pH 4.5, Solubility in Buffer B [mg/ml]

SMILES | EC50 [1] [nM] | Emax [1] [%] | solubility at 1 h [2, 5] [µg/mL] | solubility at 1 h [2, 6] [µg/mL] | EC50 [3] [nM] | EC50 [4] [nM] | solubility at 1 h [2, 7] [µg/mL]
CCCCCCCCCCCCCCCC(=O)N[C@@H](CCC(=O)NCCCC[C@H](NC(=O)[C@@H](NC(=O)[C@H](CCCCN)NC(=O)[C@@H](NC(=O)[C@@H]1CCCN1C(=O)[C@@H](NC(=O)[C@H](CC(=O)O)NC(=O)[C@H](CC(C)C)NC(=O)[C@H](CO)NC(=O)[C@H](CC(C)C)NC(=O)[C@@H](NC(=O)[C@@H](N)Cc1ccccc1)[C@@H](C)O)C(C)C)[C@@H](C)O)[C@@H](C)CC)C(=O)N[C@@H](CCC(N)=O)C(=O)N[C@@H](CCCCN)C(=O)N[C@@H](CC(C)C)C(=O)N[C@@H](CC(C)C)C(=O)N[C@@H](CCCCN)C(=O)N[C@@H](CCC(N)=O)C(=O)N[C@@H](CCC(=O)O)C(=O)N[C@@H](CCCCN)C(=O)N[C@@H](CCC(N)=O)C(=O)N[C@@H](CCCNC(=N)N)C(=O)N[C@@H](CCCCN)C(=O)N[C@@H](CCC(N)=O)C(=O)N[C@@H](CCCCN)C(=O)N[C@@H](CCC(N)=O)C(=O)N[C@@H](CCCCN)C(=O)N[C@@H](C)C(=O)N[C@@H](CCCCN)C(=O)N[C@H](C(=O)N[C@@H](CC(N)=O)C(=O)N[C@@H](C)C(=O)N[C@@H](CCCCN)C(=O)N[C@H](C(=O)N[C@@H](CC(C)C)C(=O)N[C@@H](C)C(=O)N[C@@H](CCCNC(=N)N)C(=O)N[C@H](C(N)=O)C(C)C)[C@@H](C)CC)[C@@H](C)O)C(=O)O [compound 14] (H-FTLSLDVPTKIK([γGlu-Palmitoyl])QKLLKQEKQRKQKQKAKTNAKILARV-NH2; N-terminus assumed) | > 1000 | 14.1 | > 9100 | > 8700 | 0.18 |  | 
CCCCCCCCCCCCCCCC(=O)N[C@@H](CCC(=O)NCCCC[C@H](NC(=O)[C@H](CC(C)C)NC(=O)[C@H](CCCCN)NC(=O)[C@@H](NC(=O)[C@@H]1CCCN1C(=O)[C@H](NC(=O)[C@H](CC(=O)O)NC(=O)[C@H](CC(C)C)NC(=O)[C@H](CO)NC(=O)[C@H](CC(C)C)NC(=O)[C@@H](NC(=O)[C@@H](N)[C@@H](C)CC)C(C)C)C(C)C)[C@@H](C)O)C(=O)N[C@@H](CCC(N)=O)C(=O)N[C@@H](CCCCN)C(=O)N[C@@H](CC(C)C)C(=O)N[C@@H](CC(C)C)C(=O)N[C@@H](CCCCN)C(=O)N[C@@H](CCC(N)=O)C(=O)N[C@@H](CCC(=O)O)C(=O)N[C@@H](CCCNC(=N)N)C(=O)N[C@@H](CCC(N)=O)C(=O)N[C@@H](CCCNC(=N)N)C(=O)N[C@@H](CCCCN)C(=O)N[C@@H](CCC(=O)O)C(=O)N[C@@H](CCCNC(=N)N)C(=O)N[C@@H](CCC(=O)O)C(=O)N[C@@H](CCC(N)=O)C(=O)N[C@@H](C)C(=O)N[C@@H](CCC(=O)O)C(=O)N[C@@H](CCCCN)C(=O)N[C@@H](CC(N)=O)C(=O)N[C@@H](CCCCN)C(=O)N[C@@H](CCCNC(=N)N)C(=O)N[C@H](C(=O)N[C@@H](CC(C)C)C(=O)N[C@@H](CCC(=O)O)C(=O)N[C@@H](CCCNC(=N)N)C(=O)N[C@H](C(N)=O)C(C)C)[C@@H](C)CC)C(=O)O [compound 18] (H-IVLSLD[dV]PTKLK([γGlu-Palmitoyl])QKLLKQERQRKEREQAEKNKRILERV-NH2) |  |  | > 10200 |  | 0.03 | 0.02 | > 9300
CCCCCCCCCCCCCCCC(=O)N[C@@H](CCC(=O)NCCCC[C@H](NC(=O)[C@H](CC(C)C)NC(=O)[C@H](CCCCN)NC(=O)[C@@H](NC(=O)[C@@H]1CCCN1C(=O)[C@H](NC(=O)[C@H](CC(=O)O)NC(=O)[C@H](CC(C)C)NC(=O)[C@H](CO)NC(=O)[C@H](CC(C)C)NC(=O)[C@@H](NC(=O)[C@@H](N)[C@@H](C)CC)C(C)C)C(C)C)[C@@H](C)O)C(=O)N[C@@H](CCC(N)=O)C(=O)N[C@@H](CCCCN)C(=O)N[C@@H](CC(C)C)C(=O)N[C@@H](CC(C)C)C(=O)N[C@@H](CCCCN)C(=O)N[C@@H](CCC(N)=O)C(=O)N[C@@H](CCC(=O)O)C(=O)N[C@@H](CCCNC(=N)N)C(=O)N[C@@H](CCC(N)=O)C(=O)N[C@@H](CCCNC(=N)N)C(=O)NC(C)(C)C(=O)N[C@@H](CCC(=O)O)C(=O)N[C@@H](CCCNC(=N)N)C(=O)N[C@@H](CCC(=O)O)C(=O)N[C@@H](CCC(N)=O)C(=O)N[C@@H](C)C(=O)N[C@@H](CCC(=O)O)C(=O)N[C@@H](CCCCN)C(=O)N[C@@H](CC(N)=O)C(=O)N[C@@H](CCCCN)C(=O)N[C@@H](CCCNC(=N)N)C(=O)N[C@H](C(=O)N[C@@H](CC(C)C)C(=O)N[C@@H](CCC(=O)O)C(=O)N[C@@H](CCCNC(=N)N)C(=O)N[C@H](C(N)=O)C(C)C)[C@@H](C)CC)C(=O)O [compound 19] (H-IVLSLD[dV]PTKLK([γGlu-Palmitoyl])QKLLKQERQR[Aib]EREQAEKNKRILERV-NH2; N-terminus assumed) |  | 57.4 | > 10200 | 5700 (≈ 1150 µM) | 0.01 |  | > 10800
CCCCCCCCCCCCCCCC(=O)N[C@@H](CCC(=O)NCCCC[C@H](NC(=O)[C@H](CC(C)C)NC(=O)[C@H](CCCCN)NC(=O)[C@@H](NC(=O)[C@@H]1CCCN1C(=O)[C@H](NC(=O)[C@H](CC(=O)O)NC(=O)[C@H](CC(C)C)NC(=O)[C@H](CO)NC(=O)[C@H](CC(C)C)NC(=O)[C@@H](NC(=O)[C@@H](N)[C@@H](C)CC)C(C)C)C(C)C)[C@@H](C)O)C(=O)N[C@@H](CCC(N)=O)C(=O)N[C@@H](CCCCN)C(=O)N[C@@H](CC(C)C)C(=O)N[C@@H](CC(C)C)C(=O)N[C@@H](CCCCN)C(=O)N[C@@H](CCC(N)=O)C(=O)N[C@@H](CCC(=O)O)C(=O)N[C@@H](CCCNC(=N)N)C(=O)N[C@@H](CCC(N)=O)C(=O)N[C@@H](CCCNC(=N)N)C(=O)N[C@@H](CCCCN)C(=O)N[C@@H](CCC(=O)O)C(=O)N[C@@H](CCCNC(=N)N)C(=O)N[C@@H](CCC(=O)O)C(=O)N[C@@H](CCC(N)=O)C(=O)N[C@@H](C)C(=O)N[C@@H](CCC(=O)O)C(=O)N[C@@H](CCCCN)C(=O)N[C@@H](CC(N)=O)C(=O)N[C@H](C(=O)N[C@@H](CCCNC(=N)N)C(=O)N[C@H](C(=O)N[C@@H](CC(C)C)C(=O)N[C@@H](CCC(=O)O)C(=O)N[C@@H](CCCNC(=N)N)C(=O)N[C@H](C(N)=O)C(C)C)[C@@H](C)CC)C(C)C)C(=O)O [compound 32] (H-IVLSLD[dV]PTKLK([γGlu-Palmitoyl])QKLLKQERQRKEREQAEKNVRILERV-NH2) | > 1000 | 27 |  | 8600 (≈ 1730 µM) | 0.01 |  | 
